Source: patent US20240131032A1, “AN ACTIVITY-GUIDED MAP OF ELECTROPHILE-CYSTEINE INTERACTIONS IN PRIMARY HUMAN IMMUNE CELLS” (The Scripps Research Institute, priority 2019, published 2024)

Key:
[1] = test system: primary human T cells; assay: Multidimensional screen for inhibition of T cell activation (IL-2, IFN-γ secretion, CD25, CD69 expression); format: cell-based; details: anti-CD3/anti-CD28-stimulated T cells
Procedure: FIG. 4A-4D is an overview of a multidimensional screen to identify elaborated electrophilic compounds that suppress T cell activation. FIG. 4A is a workflow for T-cell activation screen. Primary human T cells were treated with a focused library of elaborated electrophilic compounds (10 μM, structures of compounds in FIG. 12), a positive control immunosuppressive compound (DMF, 50 μM), or DMSO under TCR-stimulating conditions in 96-well plates pre-coated with 5 μg/mL αCD3 and 2 μg/mL αCD28 for 24 h. T cell activation was measured using a combination of markers, including IL2 and IFNγ secretion, as well as surface expression of CD25 and CD69. T cell viability was measured by flow cytometry using a Fixable Near-IR LIVE/DEAD™ Cell Stain. Compounds were considered as active hits if they reduced IL2 cytokine production by >65% with <15% reduction in T cell viability in the cytotoxicity assay compared to DMSO control. […]
The levels of secreted IL2, IFNγ and TNFα after incubating T cells in the presence of DMSO or electrophilic compounds under TCR-stimulating conditions were measured using DuoSet ELISA cytokine kits (R&D Systems) in clear microplates (R&D Systems) according to manufacturer's instructions and read using a CLARIOstar (BMG Labtech) plate reader (450 nm). All cytokine concentrations were calculated according to the standard curve generated for each experiment.

[2] = test system: primary human T cells; assay: T cell viability by flow cytometry (near-IR LIVE/DEAD stain); format: cell-based; details: concentration-dependent profiles, at <20 μM
Procedure: FIG. 4A-4D is an overview of a multidimensional screen to identify elaborated electrophilic compounds that suppress T cell activation. FIG. 4A is a workflow for T-cell activation screen. Primary human T cells were treated with a focused library of elaborated electrophilic compounds (10 μM, structures of compounds in FIG. 12), a positive control immunosuppressive compound (DMF, 50 μM), or DMSO under TCR-stimulating conditions in 96-well plates pre-coated with 5 μg/mL αCD3 and 2 μg/mL αCD28 for 24 h. T cell activation was measured using a combination of markers, including IL2 and IFNγ secretion, as well as surface expression of CD25 and CD69. T cell viability was measured by flow cytometry using a Fixable Near-IR LIVE/DEAD™ Cell Stain. Compounds were considered as active hits if they reduced IL2 cytokine production by >65% with <15% reduction in T cell viability in the cytotoxicity assay compared to DMSO control. […] FIG. 4C are structures of active hit compounds selected for follow-up studies, including two acrylamides (BPK-21, BPK-25), two chloroacetamides (EV-3, EV-93) and DMF as a positive control. FIG. 4D are line graphs showing T cell activation and cytotoxicity profiles for selected hit compounds.
Non-tissue culture treated 96-well plates were pre-coated with αCD3 (5 μg/mL) and αCD28 antibodies (2 μg/mL) in PBS (100 μL/well) and left at 4° C. overnight. Freshly isolated T cells were re-suspended in RPMI media supplemented with 10% FBS, L-glutamine (2 mM), penicillin (100 U/mL), and streptomycin ([…]) at 2×10^6 cells/mL. Compound stocks (200×) in DMSO were diluted to 2× stocks in the working RPMI media in another 96-well plate. The pre-coated 96-well treatment plates were washed with PBS ([…]), T cells (100 μL/well, 2×10^5 cells/well) were then added to the wells, followed by the addition of 2× compound stocks in RPMI media (100 μL). The outer wells of the plates were filled with media without cells to avoid the edge effect in the assay. The treatment was done overnight (24 h) at 37° C. in a 5% CO2 containing incubator. Following the treatment, the cells were transferred to a U-bottom 96-well plate and harvested by centrifugation (600 g, 3 min, 4° C.). The supernatants were kept and stored at −80° C. for further cytokine analysis, while the cells were washed with PBS (2×150 μL) prior to staining for flow cytometry analysis.
Following the PBS washes, the cells were stained with fixable near-IR LIVE/DEAD cell stain (Invitrogen) according to manufacturer's instructions. Briefly, one vial of near-IR LIVE/DEAD dye was resuspended in DMSO (50 μL) and diluted with PBS (1:1000). The diluted stain was added to each well (200 μL) and the cells were incubated for 30 min at room temperature in the dark. After this time, the cells were pelleted (600 g, 3 min, 4° C.), washed once with PBS (200 μL/well) and incubated with a freshly made cocktail of antibodies for the appropriate cell surface markers diluted in PBS containing 2% FBS (1:400 antibody dilution).

[3] = target: BIRC2 (Homo sapiens, UniProt Q13490, C45A); assay: Western blot of BIRC2 content in human T cells; details: EV-3 10 μM, AT-406 1 μM, 24 h; transfected primary human T cells
Procedure: All treatments were for 24 h.
All treatments were for 24 h. […] Plasmids expressing FLAG epitope-tagged versions of wild-type (WT) or the indicated cysteine-to-alanine mutants of BIRC2 (C45A) and BIRC3 (C28A) were co-transfected into primary human T cells with mCherry-expressing plasmid to control for transfection efficiency for 24 h. Cells were then treated with DMSO, EV-3 (10 μM), or AT-406 (1 μM) for 24 h and analyzed by anti-FLAG western blotting. […] (G) Quantitation of western blot data, where protein band intensity calculations were made using ImageJ software and represent the mean percentage of DMSO treated control±SEM; n=3 independent experiments per group. *p<0.05; **p<0.01 by two-tailed unpaired t test with Welch's correction compared to respective DMSO treatments.
Western blot analysis was performed on freshly isolated or expanded T cells. For Western blot protein degradation analysis, primary human T cells (2×10^7 cells/treatment) were re-suspended in RPMI media at 2×10^6 cells/mL and treated with the compounds or DMSO at 37° C. in a CO2 containing incubator for 24 h (or otherwise indicated times).

[4] = target: T1, MYD88 (Homo sapiens, UniProt Q99836); assay: isoTOP-ABPP and TMT-ABPP cysteine engagement, MYD88; format: binding; details: scout fragments
T1 construct: endogenous in cells
Procedure: Activated or expanded T cells were re-suspended in RPMI media supplemented with 10% FBS, L-glutamine (2 mM), penicillin (100 U/mL), and streptomycin (100 μg/mL) at 2×10^6 cells/mL. The compounds were added to cells as 1000×DMSO stocks and mixed well with the media by pipetting up and down after addition. The cells were kept at 37° C. in 5% CO2 containing incubators for 3 h (or otherwise specified times), then pelleted by centrifugation (524 g, 5 min, 4° C.), washed with cold PBS (10 mL) and transferred to Eppendorf tubes (1 mL PBS). The cells were pelleted again (524 g, 5 min, 4° C.), flash-frozen, and kept at −80° C. until further analysis.
Activated or expanded primary human T cells were re-suspended in RPMI (1×10^6 cells/mL) containing 10% fetal bovine serum (FBS), penicillin (100 U/mL), streptomycin ([…]), and L-glutamine (2 mM). The cells were treated with DMSO or compounds for 3 h, pelleted (524 g, 5 min), washed with PBS, and lysed by sonication (2×8 pulses). Soluble and particulate proteomic fractions were separated by ultracentrifugation (100,000 g, 45 min), and protein concentration was normalized to 1.7 mg/mL using a standard DC protein assay (Bio-Rad). The resulting proteomes were analyzed by competitive isotopic Tandem Orthogonal Proteolysis Activity-Based Protein Profiling (isoTOP-ABPP). […]
The heavy/light isoTOP-ABPP ratios (R values) for each unique peptide (DMSO/compound treated) were quantified with in-house CIMAGE software (Weerapana et al., 2010) using default parameters (3 MS1 acquisitions per peak and signal to noise threshold set to 2.5). Site-specific engagement of cysteine residues was assessed by blockade of IA-alkyne probe labeling. […] Ratios for unique peptide sequences were calculated for each experiment; overlapping peptides with the same modified cysteine (e.g., different charge states, elution times or tryptic termini) were grouped together and the median ratio was reported as the final ratio (R). […]

[5] = target: T2, PDCD1 (Homo sapiens, UniProt Q15116); assay: TMT-ABPP scout fragment sensitivity, PDCD1; format: binding; details: activated T cells; 500 μM, 1 h
T2 construct: endogenous in cells
Description: FIG. 2A-2J provides an overview of chemical proteomic mapping of fragment electrophile-cysteine interactions and reactivity changes in human T cells. […] This protocol was applied to both control and activated T cells. FIG. 2B are structures of scout fragments KB02 and KB05. FIG. 2C-FIG. 2D are pie chart representations of cysteines (C) and proteins (D) liganded with scout fragments. Results were obtained by combining soluble and particulate proteomic fraction data for KB02 and KB05 treatments (500 μM, 1 h) of both control and activated T cells. R-values within each experimental treatment group were derived from 3-5 independent isoTOP-ABPP experiments and 4 independent TMT-ABPP experiments (6 TMT channels). A cysteine was required to be quantified in at least two experiments for each compound treatment or proteomic fraction group to be reported. FIG. 2E are bar graphs showing the total number (left) and percentage (right) of liganded cysteines per total number of cysteines quantified across the indicated reactivity ranges, where cysteine reactivity was determined by isoTOP-ABPP experiments performed with different concentrations of the IA-alkyne probe (10 and 100 μM), as described previously (Weerapana et al., 2010). FIG. 2F are bar graphs showing the total number (left) and percentage (right) of liganded proteins with expression or reactivity changes in activated T cells. […]

T1 sequence (Q99836 whole entry, the tested form may be a part): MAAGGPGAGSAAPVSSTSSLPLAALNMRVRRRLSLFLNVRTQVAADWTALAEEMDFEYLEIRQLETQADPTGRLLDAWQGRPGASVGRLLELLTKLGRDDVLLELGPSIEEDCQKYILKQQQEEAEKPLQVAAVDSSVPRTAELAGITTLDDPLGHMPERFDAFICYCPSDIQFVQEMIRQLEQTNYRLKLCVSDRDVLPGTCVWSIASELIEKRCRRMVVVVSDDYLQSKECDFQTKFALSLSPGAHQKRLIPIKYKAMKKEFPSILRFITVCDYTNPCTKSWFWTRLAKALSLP
Chain of BIRC2 (Q13490 whole entry C45A, the tested form may be a part): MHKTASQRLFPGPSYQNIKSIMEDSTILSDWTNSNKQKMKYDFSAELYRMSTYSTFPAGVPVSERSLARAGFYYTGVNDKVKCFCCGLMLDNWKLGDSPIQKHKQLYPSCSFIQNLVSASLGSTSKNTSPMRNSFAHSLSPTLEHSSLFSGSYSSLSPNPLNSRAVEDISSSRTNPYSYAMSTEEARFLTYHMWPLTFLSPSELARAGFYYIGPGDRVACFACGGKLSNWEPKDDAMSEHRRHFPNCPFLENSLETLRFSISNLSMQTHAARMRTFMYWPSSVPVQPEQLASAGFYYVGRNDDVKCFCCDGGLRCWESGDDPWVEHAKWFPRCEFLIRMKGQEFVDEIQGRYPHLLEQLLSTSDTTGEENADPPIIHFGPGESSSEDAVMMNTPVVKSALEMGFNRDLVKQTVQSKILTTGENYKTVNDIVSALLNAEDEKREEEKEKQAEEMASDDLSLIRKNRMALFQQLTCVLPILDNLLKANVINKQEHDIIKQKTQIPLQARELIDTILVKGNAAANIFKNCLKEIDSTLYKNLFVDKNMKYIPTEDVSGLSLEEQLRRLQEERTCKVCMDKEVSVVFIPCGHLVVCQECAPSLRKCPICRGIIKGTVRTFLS
T2 sequence (Q15116 25-288): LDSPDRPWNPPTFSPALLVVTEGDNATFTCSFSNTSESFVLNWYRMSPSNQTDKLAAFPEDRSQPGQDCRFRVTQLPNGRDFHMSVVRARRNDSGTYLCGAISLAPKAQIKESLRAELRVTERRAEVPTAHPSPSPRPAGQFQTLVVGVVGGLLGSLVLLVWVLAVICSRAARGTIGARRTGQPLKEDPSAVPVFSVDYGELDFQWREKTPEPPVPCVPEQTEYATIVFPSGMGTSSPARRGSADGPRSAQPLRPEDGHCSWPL

CCCCS(=N)(=O)CCC(N)C(=O)O (stereo not drawn) [BSO, buthionine sulphoximine]
effect on T cell activation [1]: did not affect T cell activation

O=C(c1cccc(N2CCOCC2)c1)N1CCC(N(C(=O)CCl)c2ccccc2)C(Cc2ccccc2)C1 (stereo not drawn) [EV-93]
cytotoxicity [2]: negligible cytotoxicity

CN[C@@H](C)C(=O)N[C@H]1CN(C(=O)CC(C)C)CC[C@H]2CC[C@@H](C(=O)NC(c3ccccc3)c3ccccc3)N2C1=O [AT406]
FLAG-tagged BIRC2 C45A mutant content [3]: still promotes the degradation

C=CC(=O)N(c1ccccc1)c1ccc(Br)cc1 [KB05]
modification of MYD88 at either C274 or C280 (tryptic peptide 270-282) [4]: covalently modified

COc1ccc2c(c1)CCCN2C(=O)CCl [KB02]
modification of MYD88 at either C274 or C280 (tryptic peptide 270-282) [4]: covalently modified | sensitivity of C93 of PDCD1 [5]: KB02-sensitivity
